Source: patent US7268152B2, “Glucocorticoid mimetics, methods of making them, pharmaceutical compositions, and uses thereof” (Boehringer Ingelheim Pharmaceuticals, Inc., priority 2002, dated 2007)

What was measured:
[1] = target: T1, human glucocorticoid receptor (GR) complex (Homo sapiens, UniProt P04150); assay: Glucocorticoid receptor competitive binding assay (fluorescence polarization); conditions: competition with TAMRA-labeled dexamethasone
T1 construct: made in house; host or cells: insect expression system (baculovirus lysate)
T1 sequence (P04150 1-777): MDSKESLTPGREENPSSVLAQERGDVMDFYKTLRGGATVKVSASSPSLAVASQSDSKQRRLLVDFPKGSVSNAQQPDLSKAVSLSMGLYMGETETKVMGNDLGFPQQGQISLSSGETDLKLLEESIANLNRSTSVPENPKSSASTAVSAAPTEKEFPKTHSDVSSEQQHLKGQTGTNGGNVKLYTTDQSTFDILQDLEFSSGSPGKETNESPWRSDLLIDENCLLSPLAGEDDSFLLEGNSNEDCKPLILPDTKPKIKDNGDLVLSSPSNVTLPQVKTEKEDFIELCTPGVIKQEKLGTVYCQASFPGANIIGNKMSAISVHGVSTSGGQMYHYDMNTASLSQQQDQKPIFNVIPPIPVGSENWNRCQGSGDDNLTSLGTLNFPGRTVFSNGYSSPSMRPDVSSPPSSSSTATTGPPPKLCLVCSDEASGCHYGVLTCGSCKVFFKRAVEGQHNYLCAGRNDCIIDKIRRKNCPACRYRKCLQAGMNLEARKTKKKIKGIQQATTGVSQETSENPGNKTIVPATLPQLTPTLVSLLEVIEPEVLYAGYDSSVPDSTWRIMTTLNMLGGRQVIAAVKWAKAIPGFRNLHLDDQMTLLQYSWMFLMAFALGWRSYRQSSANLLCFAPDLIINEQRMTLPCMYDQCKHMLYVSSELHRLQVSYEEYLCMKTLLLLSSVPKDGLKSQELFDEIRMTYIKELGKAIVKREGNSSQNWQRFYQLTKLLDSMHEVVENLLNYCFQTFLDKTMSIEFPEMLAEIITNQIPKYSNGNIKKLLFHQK
Method in brief: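 FP competition against 15 nM TAMRA-labeled dexamethasone (stock added) for GR complex in baculovirus insect-cell lysate, buffer 10 mM TES, 50 mM KCl, 20 mM molybdate, pH 7.4 with 1 mM DTT. Incubated 1 h at room temperature, read at ex 550/em 580 nm; IC50 from 4-parameter logistic fit.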

[2] = system: glucocorticoid receptor; assay: One or more of the above assays (GR binding and GR cell assays; not specified which); assay type: cell-based; conditions: in one or more of the above assays
Method: This assay uses fluorescence polarization (FP) to quantitate the ability of test compounds to compete with tetramethyl rhodamine (TAMRA)-labeled dexamethasone for binding to a human glucocorticoid receptor (GR) complex prepared from an insect expression system. The assay buffer was: 10 mM TES, 50 mM KCl, 20 mM Na2MoO4.2H2O, 1.5 mM EDTA, 0.04% w/v CHAPS, 10% v/v glycerol, 1 mM dithiothreitol, pH 7.4. Test compounds were dissolved to 1 mM in neat DMSO and then further diluted to 10×assay concentration in assay buffer supplemented with 10% v/v DMSO. Test compounds were serially diluted at 10×assay concentrations in 10% DMSO-containing buffer in 96-well polypropylene plates. […] Positive controls were reaction mixtures containing no test compound; negative controls (blanks) were reaction mixtures containing 0.7 μM to 2 μM dexamethasone. […] IC50 values were determined by iterative non-linear curve fitting of the FP signal data to a 4-parameter logistic equation.
B. Glucocorticoid Receptor Cell Assays
1. Induction of Aromatase in Fibroblasts (Cell Assay for Transactivation)
Dexamethasone, a synthetic ligand to the glucocorticoid receptor (GR), induces expression of aromatase in human foreskin fibroblast cells. The activity of aromatase is measured by the conversion of testosterone to estradiol in culture media.
On the day of the experiment, the media in the wells is replaced with fresh media. Cells are treated with test compounds to final concentrations of 10^−5 M to 10 ^−8 M, and testosterone to a final concentration of 300 ng/mL. Each well has a total volume of 100 μL. Samples are made in duplicates. Control wells include: (a) wells that receive testosterone only, and (b) wells that receive testosterone plus 2 μM of dexamethasone to provide maximum induction of aromatase. Plates are incubated at 37° C. overnight (15 to 18 hours), and supernatants are harvested at the end of incubation. […] The amount of estradiol is inversely proportional to the ELISA signals in each well. The extent of aromatase induction by test compounds is expressed as a relative percentage to dexamethasone. EC50 values of test compounds are derived by non-linear curve fitting.
2. Inhibition of IL-6 Production in Fibroblasts (Cell Assay for Transrepression)
Human foreskin fibroblast cells produce IL-6 in response to stimulation by pro-inflammatory cytokine IL-1.
On the next day, media in the wells is replaced with fresh media. Cells are treated with IL-1 (rhIL-1α, R&D Systems Cat. No. 200-LA) to a final concentration of 1 ng/mL, and with test compounds to final concentrations of 10 ^−5 M to 10 ^−8 M, in a total volume of 200 μL per well. Samples are done in duplicates. […] Positive control wells receive IL-1 only and represent maximum (or 100%) amount of IL-6 production. Plates are incubated at 37° C. overnight (15 to 18 hours), and supernatants are harvested at the end of incubation. IL-6 levels in the supernatants are determined by the ELISA kits for IL-6 (MedSystems Diagnostics GmbH, Vienna, Austria, Cat. No. BMS213TEN) according to manufacture's instructions. The extent of inhibition of IL-6 by test compounds is expressed in percentage relative to positive controls. IC50 values of test compounds are derived by non-linear curve fitting.
Evaluation of agonist or antagonist activity of compounds binding to the glucocorticoid receptor may be determined by any of the assays.
3. Modulation of Tyrosine Aminotransferase (TAT) Induction in Rat Hepatoma Cells
Testing of compounds for agonist or antagonist activity in induction of tyrosine aminotransferase (TAT) in rat hepatoma cells.
H4-II-E-C3 cells were incubated overnight in 96 well plates (20,000 cells/100 μL/well) in MEM medium containing 10% heat inactivated FBS and 1% nonessential amino acids. On the next day, cells were stimulated with the indicated concentrations of dexamethasone or test compound (dissolved in DMSO, final DMSO concentration 0.2%) for 18 hours. Control cells were treated with 0.2% DMSO.

Row | SMILES | IC50 [1] [nM] | activity as agonists of the glucocorticoid receptor function [2]
1 | CC(C)(CC(O)(Cc1ccc(C#N)cc1Cl)C(F)(F)F)c1cccc2c1OCC2 (stereo not shown) [3-Chloro-4-[4-(2,3-dihydrobenzofuran-7-yl)-2-hydroxy-4-methyl-2-trifluoromethylpentyl]benzonitrile] | ≤ 100 | activity as agonists
2 | Cc1cc(C)cc(CC(O)(CC(C)(C)c2cccc3c2OCC3)C(F)(F)F)c1 (stereo not shown) [4-(2,3-Dihydrobenzofuran-7-yl)-2-(3,5-dimethylbenzyl)-1,1,1-trifluoro-4-methylpentan-2-ol] | ≤ 100 | activity as agonists
3 | CC(C)(CC(O)(Cc1cc(C(F)(F)F)cc(Cl)c1F)C(F)(F)F)c1cc(Br)cc2c1OCC2 (stereo not shown) [4-(5-Bromo-2,3-dihydrobenzofuran-7-yl)-2-(3-chloro-2-fluoro-5-trifluoromethylbenzyl)-1,1,1-trifluoro-4-methylpentan-2-ol] |  | activity as agonists
4 | CC(C)(CC(O)(Cc1ccc(C#N)cc1Cl)C(F)(F)F)c1cc(O)cc(O)c1 (stereo not shown) [3-Chloro-4-[4-(3,5-dihydroxyphenyl)-2-hydroxy-4-methyl-2-trifluoromethylpentyl]benzonitrile] |  | activity as agonists
5 | CC(C)(CC(O)(Cc1ccc(C#N)cc1Cl)C(F)(F)F)c1ccc(F)cc1 (stereo not shown) [3-Chloro-4-[4-(4-fluorophenyl)-2-hydroxy-4-methyl-2-trifluoromethylpentyl]benzonitrile] |  | activity as agonists
6 | COc1c(C(C)(C)CC(O)(Cc2ccc(C#N)cc2Cl)C(F)(F)F)ccc2ccccc12 (stereo not shown) [3-Chloro-4-[2-hydroxy-4-(1-methoxynaphthalen-2-yl)-4-methyl-2-trifluoromethylpentyl]benzonitrile] |  | activity as agonists
7 | CC(C)(CC(O)(Cc1ccc(C#N)cc1Cl)C(F)(F)F)c1ccc2c(c1)CCO2 (stereo not shown) [3-Chloro-4-[4-(2,3-dihydrobenzofuran-5-yl)-2-hydroxy-4-methyl-2-trifluoromethylpentyl]benzonitrile] |  | activity as agonists
8 | CC(C)(CC(O)(Cc1ccc(C#N)cc1Cl)C(F)(F)F)c1cc(C#N)cc2c1OCC2 (stereo not shown) [7-[3-(2-Chloro-4-cyanobenzyl)-4,4,4-trifluoro-3-hydroxy-1,1-dimethylbutyl]-2,3-dihydrobenzofuran-5-carbonitrile] |  | activity as agonists
9 | Cc1ccccc1C(C)(C)CC(O)(Cc1ccc(C#N)cc1Cl)C(F)(F)F (stereo not shown) [3-Chloro-4-(2-hydroxy-4-methyl-4-o-tolyl-2-trifluoromethylpentyl)benzonitrile] |  | activity as agonists
10 | CC(C)(CC(O)(Cc1cc(C(F)(F)F)cc(Cl)c1F)C(F)(F)F)c1cccc2ccoc12 (stereo not shown) [4-Benzofuran-7-yl-2-(3-chloro-2-fluoro-5-trifluoromethylbenzyl)-1,1,1-trifluoro-4-methylpentan-2-ol] | ≤ 100 | activity as agonists
11 | CC(C)(CC(O)(Cc1ccc(C#N)cc1Cl)C(F)(F)F)c1ccc(C(F)(F)F)cc1 (stereo not shown) [3-Chloro-4-[2-hydroxy-4-methyl-2-trifluoromethyl-4-(4-trifluoromethylphenyl)pentyl]benzonitrile] |  | activity as agonists
12 | CC(C)(CC(O)(Cc1ccc(C#N)cc1Cl)C(F)(F)F)c1cccc(C(F)(F)F)c1 (stereo not shown) [3-Chloro-4-[2-hydroxy-4-methyl-2-trifluoromethyl-4-(3-trifluoromethylphenyl)pentyl]benzonitrile] |  | activity as agonists

Further lines, with some results ahead:

Row | IC50 [1] [nM] | SMILES | activity as agonists of the glucocorticoid receptor function [2]
13 | ≤ 100 | COc1ccc(F)cc1C(C)(C)CC(O)(Cc1cc(C)cc(Cl)c1)C(F)(F)F (stereo not shown) [2-(3-Chloro-5-methylbenzyl)-1,1,1-trifluoro-4-(5-fluoro-2-methoxyphenyl)-4-methylpentan-2-ol] | activity as agonists
14 | ≤ 100 | Cc1cc(Cl)cc(CC(O)(CC(C)(C)c2cc(F)ccc2O)C(F)(F)F)c1 (stereo not shown) [2-[3-(3-Chloro-5-methylbenzyl)-4,4,4-trifluoro-3-hydroxy-1,1-dimethylbutyl]-4-fluorophenol] | activity as agonists
15 | ≤ 100 | COc1ccc(F)cc1C(C)(C)CC(O)(Cc1cc(Br)cc(C)c1F)C(F)(F)F (stereo not shown) [2-(5-Bromo-2-fluoro-3-methylbenzyl)-1,1,1-trifluoro-4-(5-fluoro-2-methoxyphenyl)-4-methylpentan-2-ol] | activity as agonists
16 | ≤ 100 | COc1ccc(F)cc1C(C)(C)CC(O)(Cc1cc(C(F)(F)F)cc(Cl)c1F)C(F)(F)F (stereo not shown) [2-(3-Chloro-2-fluoro-5-trifluoromethylbenzyl)-1,1,1-trifluoro-4-(5-fluoro-2-methoxyphenyl)-4-methylpentan-2-ol] | activity as agonists
17 | ≤ 100 | COc1ccc(F)cc1C(C)(C)CC(O)(Cc1cc(Br)cc(Br)c1)C(F)(F)F (stereo not shown) [2-(3,5-Dibromobenzyl)-1,1,1-trifluoro-4-(5-fluoro-2-methoxyphenyl)-4-methylpentan-2-ol] | activity as agonists
18 | ≤ 100 | COc1ccc(F)cc1C(C)(C)CC(O)(Cc1cc(C)cc(C)c1)C(F)(F)F (stereo not shown) [2-(3,5-Dimethylbenzyl)-1,1,1-trifluoro-4-(5-fluoro-2-methoxyphenyl)-4-methylpentan-2-ol] | activity as agonists
19 | ≤ 100 | COc1ccc(F)cc1C(C)(C)CC(O)(Cc1ccc(C#N)cc1Cl)C(F)(F)F (stereo not shown) [3-Chloro-4-[4-(5-fluoro-2-methoxyphenyl)-2-hydroxy-4-methyl-2-trifluoromethylpentyl]benzonitrile] | activity as agonists
20 | ≤ 100 | CC(C)(CC(O)(Cc1cc(Br)cc(Br)c1)C(F)(F)F)c1cc(F)ccc1O (stereo not shown) [2-[3-(3,5-Dibromobenzyl)-4,4,4-trifluoro-3-hydroxy-1,1-dimethylbutyl]-4-fluorophenol] | activity as agonists
